# Results as given in ChEMBL document CHEMBL1153262, “Polyketide synthase thioesterases catalyze rapid hydrolysis of peptidyl thioesters” (Bioorg Med Chem Lett, 2009).
# Experiments:
# [1] = Ratio of kcat/km of PKS TEs assessed as hydrolysis of 6-deoxyerythronolide-B
# [2] = Ratio of kcat/km of PKS TEs assessed as hydrolysis of epothilone
# [3] = Activity at PKS TEs assessed as hydrolysis of epothilone
# [4] = Ratio of kcat/km of PKS TEs assessed as hydrolysis of pimaricin
# [5] = Activity at PKS TEs assessed as hydrolysis of pimaricin
SMILES,kcat/Km [1],kcat/Km [2],Km [3],kcat [3],kcat/Km [4],Km [5],kcat [5]
CC(=O)NCCSC(=O)[C@@H](C)NC(=O)OC(C)(C)C,0.5 M⁻¹ s⁻¹,12.5 M⁻¹ s⁻¹,–,–,–,–,–
CC(=O)NCCSC(=O)CNC(=O)[C@@H](C)NC(=O)OC(C)(C)C,0.8 M⁻¹ s⁻¹,38.8 M⁻¹ s⁻¹,1300 µM,0.0517 s⁻¹,–,–,–
CC(=O)NCCSC(=O)CNC(=O)OC(C)(C)C,7 M⁻¹ s⁻¹,145 M⁻¹ s⁻¹,–,–,1.29 M⁻¹ s⁻¹,–,–
CC(=O)NCCSC(=O)[C@H](C)NC(=O)OC(C)(C)C,0.88 M⁻¹ s⁻¹,91.3 M⁻¹ s⁻¹,–,–,–,–,–

# Now from value to molecule:
kcat/Km [1],kcat/Km [2],Km [3],kcat [3],kcat/Km [4],Km [5],kcat [5],SMILES
0.39 M⁻¹ s⁻¹,110 M⁻¹ s⁻¹,2900 µM,0.32 s⁻¹,–,–,–,CC(=O)NCCSC(=O)CNC(=O)[C@H](C)NC(=O)OC(C)(C)C
7.75 M⁻¹ s⁻¹,24.2 M⁻¹ s⁻¹,–,–,1.14 M⁻¹ s⁻¹,–,–,CC(=O)NCCSC(=O)CCNC(=O)c1ccccc1
1.47 M⁻¹ s⁻¹,75.1 M⁻¹ s⁻¹,400 µM,0.0303 s⁻¹,23.3 M⁻¹ s⁻¹,800 µM,0.02 s⁻¹,CC(=O)NCCSC(=O)CCCCCCNC(=O)OC(C)(C)C
